In patent US20070197657A1, “Method for treating non-inflammatory musculoskeletal pain” (SRZ Properties, Inc., priority 2005, published 2007):
Entries after “also recorded” stand apart in the source; their conditions may differ.

Columns and labels:
[1] = tested on: muscle pressure hyperalgesia induced by TNF; experiment: TNF-induced muscle pressure hyperalgesia (Randall-Selitto, gastrocnemius muscle); type: in vivo, rat; settings: for reversal of muscular mechanical hyperalgesia (withdrawal threshold to muscle pressure): TNF 1 μg i.m. gastrocnemius, 30 mg/kg
Excerpt: (§1) The model used in this example is applicable to musculoskeletal pain which occurs in fibromyalgia, myofascial pain syndrome or back pain. For comparative purposes, the non-opioid analgesic dipyrone (metamizol) and the anticonvulsants pregabalin and gabapentin were included in the study.
(§2) Adult male Sprague Dawley rats with a body weight of 250 g to 300 g were used (supplier: Charles River, Sulzfeld, Germany). Animals were group-housed (3 animals per cage) and maintained in a room with controlled temperature (21-22° C.) and a reversed light-dark cycle (12 h/12 h) with food and water available ad libitum. All experiments were approved by the Bavarian State animal experimentation committee and carried out in accordance with its regulations.
(§3) Recombinant rat tumor necrosis factor alpha (herein referred to as TNF) was obtained from R&D Systems, Minneapolis, Minn., U.S.A. TNF was diluted in 0.9% NaCl and used in a concentration of 1 μg in 50 μl. Injections were performed in short halothane narcosis with a 30 g needle bilaterally into the gastrocnemius or into the biceps brachii muscle. All rats were used to the behavioral tests before injections and baseline values were recorded over three test days.
Mechanical withdrawal thresholds to muscle pressure were measured with an analgesimeter (Ugo Basile, Comerio, Italy). The rat was allowed to crawl into a sock which helps the rat to relax. The hind limbs were positioned such that an increasing pressure could be applied onto the gastrocnemius muscle (maximum 250 g). The pressure needed to elicit withdrawal was recorded. Means of 3 trials for each hind limb were calculated (interstimulus interval of >30 sec). Only animals with a significant TNF effect were included for further analysis.
Rats were injected with TNF into the gastrocnemius muscle at 2 pm. Eighteen hours later, rats were tested for pressure hyperalgesia pre- and post-administration of the test drug. Rats were tested for pressure hyperalgesia 30 to 60 minutes after drug administration.
(§4) The rats, initially 10 per group, were treated with either 3, 10 or 30 mg/kg lacosamide, 2 mg/kg metamizol, 30 or 100 mg/kg pregabalin, 100 mg/kg gabapentin, or the NaCl vehicle, i.p. (intraperitoneally). Volume of i.p. injections was 0.5 ml. A pilot study was performed to confirm that i.m. (intramuscular) injection of 1 μg TNF into the gastrocnemius muscle was sufficient to induce pressure hyperalgesia.
(§5) Data are shown in graphs displaying means and standard errors of the means (SEM). Pre- and post-treatment data were compared using ANOVA (analysis of variance) and a Tukey post hoc test. Means of treatment groups were compared using a one-way ANOVA and Dunnett's post hoc test. Maximal possible effects (MPE) were calculated for all types of treatment.

[2] = tested on: TNF-induced reduction of grip strength; experiment: biceps muscle grip strength after TNF-induced muscle pain; type: in vivo, rat; settings: for reversal of TNF-induced reduction of grip strength: TNF 1 μg i.m. biceps brachii
Excerpt: as §1, §2, §3
Grip strength of the forelimbs was tested with a digital grip force meter (DFIS series, Chatillon, Greensboro, N.C., U.S.A.). The rat was positioned to grab the grid with the forelimbs and was gently pulled so that the grip strength could be recorded. Means of three trials were calculated. The effect of the TNF treatment was calculated for each animal separately and only animals with a significant TNF effect were included for further analysis.
Rats were injected with TNF into the biceps brachii muscle at 8 am. Six hours later, grip strength of the forelimbs was tested with a digital grip force meter. Test drug was administered, and grip strength was again tested after 30 to 60 minutes.
as §4, §5

[3] = tested on: monosodium iodoacetate-induced tactile allodynia; experiment: monosodium iodoacetate-induced tactile allodynia (von Frey filaments); type: in vivo, rat
[4] = tested on: monosodium iodoacetate-induced mechanical hyperalgesia; experiment: monosodium iodoacetate-induced mechanical hyperalgesia (Randall-Selitto paw pressure); type: in vivo, rat; settings: for mechanical hyperalgesia (paw pressure withdrawal threshold): day 7
[5] = tested on: formalin-induced flinching and licking of the affected paw; experiment: rat formalin paw test (late phase); type: in vivo
Description: Rats were given an intraplantar injection of 5% formalin (50 μl) into the posterior left paw. This treatment induces a recognizable flinching and licking response of the affected paw in control animals. The number of flinches was counted for 15 minutes, beginning 20 minutes after injection of formalin. The time spent licking the affected paw was also recorded.
Male Rj: Wistar (Han) rats, 10 per group, weighing 100-130 g at the beginning of the experiments were studied per group. The test was performed blind.
Lacosamide (20 mg/kg), gabapentin (50 and 100 mg/kg), combinations of lacosamide (20 mg/kg) with gabapentin (50 and 100 mg/kg), and vehicle were administered i.p. 10 minutes before injection of formalin.
Lacosamide (10 and 20 mg/kg), morphine (2 and 4 mg/kg), combinations of lacosamide (10 and 20 mg/kg) with morphine (2 and 4 mg/kg), and vehicle were administered i.p. 10 minutes before injection of formalin.
Lacosamide (10 mg/kg), duloxetine (8 mg/kg), a combination of lacosamide (10 mg/kg) with duloxetine (8 mg/kg), and vehicle were administered i.p. 10 minutes before injection of formalin.
Lacosamide (10 and 20 mg/kg), memantine (4 and 8 mg/kg), combinations of lacosamide (10 and 20 mg/kg) with memantine (4 and 8 mg/kg), and vehicle were administered i.p. 10 minutes before injection of formalin.
Lacosamide (10 and 20 mg/kg), naproxen (8 and 16 mg/kg), combinations of lacosamide (10 and 20 mg/kg) with […] (8 and 16 mg/kg), and vehicle were administered i.p. 10 minutes before injection of formalin. Morphine (8 mg/kg) was included as a comparative treatment.

[6] = Example 3, lacosamide 20 mg/kg i.p.
[7] = Example 4, lacosamide 10 mg/kg i.p.
[8] = Example 4, lacosamide 20 mg/kg i.p.
[9] = Example 5, lacosamide 10 mg/kg i.p.
[10] = Example 6, lacosamide 10 mg/kg i.p.
[11] = Example 6, lacosamide 20 mg/kg i.p.
[12] = Example 7, lacosamide 10 mg/kg i.p.
[13] = Example 7, lacosamide 20 mg/kg i.p.

**Q.** With `COC[C@@H](NC(C)=O)C(=O)NCc1ccccc1` [Lacosamide, (R)-2-acetamido-N-benzyl-3-methoxypropionamide] as the compound, how does the “MPE (maximal possible effect) on muscle pressure hyperalgesia, versus vehicle” value ([1]; 10 mg/kg i.p.) read?
**A.** significantly different from vehicle

**Q.** And the “MPE (maximal possible effect) on muscle pressure hyperalgesia, versus vehicle” value ([1]; 30 mg/kg i.p.)?
**A.** significantly different from vehicle

**Q.** And the “reversal of muscular mechanical hyperalgesia (withdrawal threshold to muscle pressure)” value ([1]; 30 mg/kg i.p.)?
**A.** full reversal

**Q.** And the “reversal of muscular mechanical hyperalgesia (withdrawal threshold to muscle pressure)” value ([1]; 30 mg/kg i.p., listed as lacosamide)?
**A.** complete reversal

**Q.** And the “effect on muscle pain in comparison to pregabalin and gabapentin” value ([1]; paw pressure test)?
**A.** stronger effect

**Q.** What about the “MPE (maximal possible effect) on biceps muscle grip strength, versus vehicle” value ([2]; 10 mg/kg i.p.) of the same compound?
**A.** significantly different from vehicle

**Q.** What about the “MPE (maximal possible effect) on biceps muscle grip strength, versus vehicle” value ([2]; 30 mg/kg i.p.) of the same compound?
**A.** significantly different from vehicle

**Q.** And the “reversal of TNF-induced reduction of grip strength” value ([2]; 10 mg/kg i.p., 10 mg/kg)?
**A.** significant reversal; also recorded: reversed the effect of TNF

**Q.** What about the “reversal of TNF-induced reduction of grip strength” value ([2]; 30 mg/kg i.p.) of the same compound?
**A.** significant reversal

**Q.** What about the “potency compared with pregabalin and gabapentin” value ([2]; grip strength test) of the same compound?
**A.** more potent

**Q.** What about the “tactile allodynia of iodoacetate-treated rats” value (“tactile allodynia” for short) ([3]; day 3, 30 mg/kg (lacosamide p.o., diclofenac s.c.)) of the same compound?
**A.** improved

**Q.** And the “tactile allodynia” value ([3]; day 7, 30 mg/kg (lacosamide p.o., diclofenac s.c.))?
**A.** improved

**Q.** And the “tactile allodynia” value ([3]; day 14, 30 mg/kg (lacosamide p.o., diclofenac s.c.))?
**A.** not on day 14

**Q.** What about the “tactile allodynia” value ([3]; lower doses of lacosamide (3, 10 mg/kg p.o.)) of the same compound?
**A.** showed a trend for such improvement

**Q.** What about the “mechanical hyperalgesia (paw pressure withdrawal threshold) compared to iodoacetate/vehicle treated animals” value ([4]; day 3, 3 mg/kg (lacosamide p.o., morphine s.c.)) of the same compound?
**A.** increase in paw pressure withdrawal threshold

**Q.** And the “mechanical hyperalgesia (paw pressure withdrawal threshold)” value ([4]; 3 mg/kg (lacosamide p.o., morphine s.c.))?
**A.** reduced mechanical hyperalgesia

**Q.** And the “mechanical hyperalgesia (paw pressure withdrawal threshold)” value ([4]; 30 mg/kg (lacosamide p.o., diclofenac s.c.))?
**A.** reduced mechanical hyperalgesia

**Q.** And the “Licking time % change (a): compared with vehicle control” value (“Licking time % change” for short) [5, 6]?
**A.** −34%

**Q.** What about the “Licking time (seconds) mean ± SEM” value [5, 6] of the same compound?
**A.** 146.9 ± 23.8 s

**Q.** And the “No. of flinches % change (a): compared with vehicle control” value (“No. of flinches % change” below) [5, 6]?
**A.** −33%

**Q.** And the “No. of flinches mean ± SEM” value [5, 6]?
**A.** 85.7 ± 14.3

**Q.** And the “decrease in the number of flinches as compared with vehicle controls” value (from here on “decrease in the number of flinches”) [5, 6]?
**A.** 33%

**Q.** And the “decrease in the time spent licking as compared with vehicle controls” value [5, 6]?
**A.** 34%

**Q.** What about the “Licking time % change” value [5, 7] of the same compound?
**A.** −28%

**Q.** What about the “Licking time (seconds) mean ± SEM” value [5, 7] of the same compound?
**A.** 210.1 ± 22.7 s

**Q.** What about the “No. of flinches % change” value [5, 7] of the same compound?
**A.** +22%

**Q.** And the “No. of flinches mean ± SEM” value [5, 7]?
**A.** 182.7 ± 25.9

**Q.** And the “decrease in the time spent licking as compared with vehicle controls” value [5, 7]?
**A.** 28%

**Q.** What about the “increase in the number of flinches as compared with vehicle controls” value [5, 7] of the same compound?
**A.** 22%

**Q.** And the “Licking time % change” value [5, 8]?
**A.** −56%

**Q.** What about the “Licking time (seconds) mean ± SEM” value [5, 8] of the same compound?
**A.** 128.2 ± 28.0 s

**Q.** And the “No. of flinches % change” value [5, 8]?
**A.** −35%

**Q.** What about the “No. of flinches mean ± SEM” value [5, 8] of the same compound?
**A.** 97.2 ± 16.0

**Q.** And the “decrease in the number of flinches” value [5, 8]?
**A.** 35%

**Q.** And the “decrease in the time spent licking as compared with vehicle controls” value [5, 8]?
**A.** 56%

**Q.** What about the “Licking time % change” value [5, 9] of the same compound?
**A.** −30%

**Q.** What about the “Licking time (seconds) mean ± SEM” value [5, 9] of the same compound?
**A.** 185.2 ± 31.7 s

**Q.** What about the “No. of flinches % change” value [5, 9] of the same compound?
**A.** +5%

**Q.** What about the “No. of flinches mean ± SEM” value [5, 9] of the same compound?
**A.** 158.2 ± 15.6

**Q.** What about the “decrease in the time spent licking” value [5, 9] of the same compound?
**A.** 30%

**Q.** What about the “effects on number of flinches and time spent licking” value [5, 9] of the same compound?
**A.** no significant effects

**Q.** What about the “Licking time % change” value [5, 10] of the same compound?
**A.** −4%

**Q.** And the “Licking time (seconds) mean ± SEM” value [5, 10]?
**A.** 168.5 ± 23.9 s

**Q.** What about the “No. of flinches % change” value [5, 10] of the same compound?
**A.** −31%

**Q.** And the “No. of flinches mean ± SEM” value [5, 10]?
**A.** 113.9 ± 23.2

**Q.** And the “decrease in the number of flinches” value [5, 10]?
**A.** 31%

**Q.** What about the “effect on the time spent licking” value [5, 10] of the same compound?
**A.** no clear effects

**Q.** And the “Licking time % change” value [5, 11]?
**A.** −52%

**Q.** What about the “Licking time (seconds) mean ± SEM” value [5, 11] of the same compound?
**A.** 85.1 ± 19.1 s

**Q.** What about the “No. of flinches % change” value [5, 11] of the same compound?
**A.** −48%

**Q.** And the “No. of flinches mean ± SEM” value [5, 11]?
**A.** 85.8 ± 14.4

**Q.** What about the “decrease in the number of flinches” value [5, 11] of the same compound?
**A.** 48%

**Q.** What about the “decrease in the time spent licking” value [5, 11] of the same compound?
**A.** 52%

**Q.** What about the “Licking time % change” value [5, 12] of the same compound?
**A.** −9%

**Q.** What about the “Licking time (seconds) mean ± SEM” value [5, 12] of the same compound?
**A.** 174.7 ± 20.4 s

**Q.** What about the “No. of flinches % change” value [5, 12] of the same compound?
**A.** −13%

**Q.** And the “No. of flinches mean ± SEM” value [5, 12]?
**A.** 99.2 ± 16.6

**Q.** And the “effect on the time spent licking” value [5, 12]?
**A.** no clear effects

**Q.** And the “Licking time % change” value [5, 13]?
**A.** −59%

**Q.** And the “Licking time (seconds) mean ± SEM” value [5, 13]?
**A.** 78.9 ± 20.4 s

**Q.** And the “No. of flinches % change” value [5, 13]?
**A.** −12%

**Q.** What about the “No. of flinches mean ± SEM” value [5, 13] of the same compound?
**A.** 100.3 ± 22.3

**Q.** What about the “decrease in the time spent licking” value [5, 13] of the same compound?
**A.** 59%

**Q.** What about the “effect on the number of flinches as compared with vehicle controls” value ([5]; Example 7, lacosamide 10 and 20 mg/kg i.p.) of the same compound?
**A.** did not clearly affect
